Values quoted from earlier work in PubChem BioAssay AID1259409 (Chemical Carcinogenesis Research Information System (CCRIS), 2018).

System: rodent chemically induced tumor inhibition, incidence and multiplicity
Assay: CCRIS tumor inhibitor studies
Conditions: Dose [Inhibitor]: 0

## O=C(/C=C/c1ccccc1)c1ccccc1
Carcinogen: 4-NITROQUINOLINE-1-OXIDE, 56-57-5, 500 PPM IN DIET FOR 10 WK BEGINNING 1 WK PRIOR TO CARCINOGEN DOSE (STUDY DURATION: 32 WK), Route [Inhibitor]: ORAL, Species: RAT, Strain/Sex: F344/MALE, Target Tissue: Type of Lesion: TONGUE: CARCINOMA, Dose [Carcinogen]: 20 PPM IN DRINKING WATER FOR 8 WK, Promoter: NONE USED
  tumour outcome (control, treated, inhibition, significance): 9/15 (60%), 3/16 (19%), 68%, p<0.05
Carcinogen: 4-NITROQUINOLINE-1-OXIDE, 56-57-5, 500 PPM IN DIET FOR 10 WK BEGINNING 1 WK PRIOR TO CARCINOGEN DOSE (STUDY DURATION: 32 WK), Route [Inhibitor]: ORAL, Species: RAT, Strain/Sex: F344/MALE, Target Tissue: Type of Lesion: TONGUE: PAPILLOMA, Dose [Carcinogen]: 20 PPM IN DRINKING WATER FOR 8 WK, Promoter: NONE USED
  tumour outcome (control, treated, inhibition, significance): 4/15 (27%), 1/16 (6%), 78%, not significant
Carcinogen: 4-NITROQUINOLINE-1-OXIDE, 56-57-5, 500 PPM IN DIET FOR 22 WK BEGINNING 1 WK POST CARCINOGEN TREATMENT (STUDY DURATION: 32 WK), Route [Inhibitor]: ORAL, Species: RAT, Strain/Sex: F344/MALE, Target Tissue: Type of Lesion: TONGUE: CARCINOMA, Dose [Carcinogen]: 20 PPM IN DRINKING WATER FOR 8 WK, Promoter: NONE USED
  tumour outcome (control, treated, inhibition, significance): 9/15 (60%), 3/16 (19%), 68%, p<0.05
Carcinogen: 4-NITROQUINOLINE-1-OXIDE, 56-57-5, 500 PPM IN DIET FOR 22 WK BEGINNING 1 WK POST CARCINOGEN TREATMENT (STUDY DURATION: 32 WK), Route [Inhibitor]: ORAL, Species: RAT, Strain/Sex: F344/MALE, Target Tissue: Type of Lesion: TONGUE: PAPILLOMA, Dose [Carcinogen]: 20 PPM IN DRINKING WATER FOR 8 WK, Promoter: NONE USED
  tumour outcome (control, treated, inhibition, significance): 4/15 (27%), 0/16 (0%), 100%, p<0.05
Carcinogen: BENZO[A]PYRENE, 50-32-8, 0.2 MG/G IN DIET FOR 21 WK BEGINNING 1 WK POST LAST CARCINOGEN DOSE (STUDY DURATION: 23 WK), Route [Inhibitor]: ORAL, Species: MOUSE, Strain/Sex: STRAIN-A/FEMALE, Target Tissue: Type of Lesion: FORESTOMACH: TUMOR, Dose [Carcinogen]: 2 MG IN 0.2 ML COTTONSEED OIL ONCE EACH ON DAYS 1, 3 AND 7 OF STUDY, Promoter: NONE USED
  tumour outcome (control, treated, inhibition, significance): 93%, 100%, -8%, not significant
Carcinogen: BENZO[A]PYRENE, 50-32-8, 1 MG/G IN DIET FOR 21 WK BEGINNING 1 WK POST LAST CARCINOGEN DOSE (STUDY DURATION: 23 WK), Route [Inhibitor]: ORAL, Species: MOUSE, Strain/Sex: STRAIN-A/FEMALE, Target Tissue: Type of Lesion: FORESTOMACH: TUMOR, Dose [Carcinogen]: 2 MG IN 0.2 ML COTTONSEED OIL ONCE EACH ON DAYS 1, 3 AND 7 OF STUDY, Promoter: NONE USED
  tumour outcome (control, treated, inhibition, significance): 93%, 100%, -8%, not significant
Carcinogen: BENZO[A]PYRENE, 50-32-8, 5 MG/G IN DIET FOR 21 WK BEGINNING 1 WK POST LAST CARCINOGEN DOSE (STUDY DURATION: 23 WK), Route [Inhibitor]: ORAL, Species: MOUSE, Strain/Sex: STRAIN-A/FEMALE, Target Tissue: Type of Lesion: FORESTOMACH: TUMOR, Dose [Carcinogen]: 2 MG IN 0.2 ML COTTONSEED OIL ONCE EACH ON DAYS 1, 3 AND 7 OF STUDY, Promoter: NONE USED
  tumour outcome (control, treated, inhibition, significance): 93%, 100%, -8%, not significant
Carcinogen: BENZO[A]PYRENE, 50-32-8, 10 MG/G IN DIET FOR 21 WK BEGINNING 1 WK POST LAST CARCINOGEN DOSE (STUDY DURATION: 23 WK), Route [Inhibitor]: ORAL, Species: MOUSE, Strain/Sex: STRAIN-A/FEMALE, Target Tissue: Type of Lesion: FORESTOMACH: TUMOR, Dose [Carcinogen]: 2 MG IN 0.2 ML COTTONSEED OIL ONCE EACH ON DAYS 1, 3 AND 7 OF STUDY, Promoter: NONE USED
  tumour outcome (control, treated, inhibition, significance): 93%, 100%, -8%, not significant
Carcinogen: N-METHYL-N-NITROSOUREA, 684-93-5, 5 MG/G IN DIET FOR 17 WK BEGINNING 1 WK POST CARCINOGEN DOSE (STUDY DURATION: 18 WK), Route [Inhibitor]: ORAL, Species: RAT, Strain/Sex: SPRAGUE-DAWLEY/FEMALE, Target Tissue: Type of Lesion: MAMMARY GLAND: TUMOR, Dose [Carcinogen]: 50 MG/KG BW ONCE, Promoter: NONE USED
  tumour outcome (control, treated, inhibition, significance): 71%, 36%, 49%, p=0.058
Carcinogen: N-METHYL-N-NITROSOUREA, 684-93-5, 5 MG/G IN DIET STARTING 4 WK POST CARCINOGEN DOSE THEN FED FOR 3 WK ALTERNATING WITH 3 WK ON CONTROL DIET FOR DURATIO, Route [Inhibitor]: ORAL, Species: RAT, Strain/Sex: SPRAGUE-DAWLEY/FEMALE, Target Tissue: Type of Lesion: MAMMARY GLAND: TUMOR, Dose [Carcinogen]: 50 MG/KG BW ONCE, Promoter: NONE USED
  tumour outcome (control, treated, inhibition, significance): 75%, 38%, 49%, p=0.033

## CC(O)C(=O)O (stereo not drawn)
Carcinogen: 1,2-DIMETHYLHYDRAZINE, 540-73-8, 3.2 G/L IN DRINKING WATER FOR DURATION OF STUDY (STUDY DURATION: 34 WK), Route [Inhibitor]: ORAL, Species: RAT, Strain/Sex: SPRAGUE-DAWLEY/MALE, FEMALE, Target Tissue: Type of Lesion: COLON: TUMOR, Dose [Carcinogen]: 21 MG/KG 1/WK FOR 18 WK, Promoter: NONE USED
  outcome: 28/29 (97%), 18/28 (64%), not calculated

## O=C(CCCN1CCC(O)(c2ccc(Cl)cc2)CC1)c1ccc(F)cc1
Carcinogen: AZOXYMETHANE, 25843-45-2, 2 MG/KG BW SUSPENDED IN 1 ML/MG OLIVE OIL 1/2 D FOR STUDY DURATION (STUDY DURATION: 30 WK), Route [Inhibitor]: SUBCUTANEOUS, Species: RAT, Strain/Sex: WISTAR/MALE, Target Tissue: Type of Lesion: COLON: TUMOR, Dose [Carcinogen]: 7.4 MG/KG IN 0.9% SALINE 1/WK FOR 10 WK
  tumour outcome (control, treated, inhibition, significance): 9/17 (53%), 3/19 (16%), 70%, p<0.05

## Brc1cc2c(cc1Br)Oc1cc(Br)c(Br)cc1O2
Carcinogen: 7,12-DIMETHYLBENZ[A]ANTHRACENE, 57-97-6, 17 NMOL 2/WK APPLIED 1 HR PRIOR TO EACH PROMOTER DOSE FOR 10 WK (STUDY DURATION: 11 WK), Route [Inhibitor]: DERMAL, Species: MOUSE, Target Tissue: Type of Lesion: SKIN: TUMOR, Dose [Carcinogen]: 390 NMOL ONCE, Promoter: 12-O-TETRADECANOYLPHORBOL-13-ACETATE, 16561-29-8
  tumour outcome (control, treated, inhibition, significance): 100%, 0%, 100%, not calculated
